{"source": "patent US12419875B2", "about": "“Use of Axitinib and analogs thereof in preparing blood-brain barrier permeability regulator” (ZHEJIANG UNIVERSITY, priority 2018, dated 2025)", "key": {"[1]": {"system": "Claudin-5", "test": "Pathological blood-brain barrier Transwell model (bEnd.3 co-incubated with U87 MG), Claudin-5 immunofluorescence", "format": "cell-based", "conditions": "bEnd.3/U87 MG co-incubation, 24 hours; FIG. 8", "experimental": "A transwell model of co-incubation of brain microvascular endothelial cells bEnd.3 and glioma cells U87 MG simulates a pathological blood-brain barrier. Axitinib was allowed to act on the Transwell chamber. After 24 hours, immunofluorescent staining was performed on bEnd.3 cells on the Transwell chamber membrane. A physiological blood-brain barrier simulated by a Transwell model of brain microvascular endothelial cell bEnd.3 was used as a positive control group. […] Panel B is the result of fluorescence semi-quantitative analysis of Claudin-5 expression by Image J (n=3).\nAxitinib was added to the Transwell chamber. After the drug was allowed to act for 24 hours, the Transwell cell with bEnd.3 cells grown was transferred to another 12-well plate, washed with PBS for three times, fixed with 4% formaldehyde, and blocked with 10% bovine serum albumin for 30 minutes. Thereafter, Claudin-5 primary antibody was added and incubated at 4° C. overnight, and finally was incubated with fluorescently-labeled secondary antibody for 1 hour. The nucleus was counterstained with DAPI."}, "[2]": {"system": "Claudin-5/Occludin", "test": "Pathological blood-brain barrier Transwell model, Claudin-5/Occludin immunofluorescence", "format": "cell-based", "conditions": "10 μM, 24 hours; FIG. 12", "experimental": "A Transwell model of co-incubation of brain microvascular endothelial cells bEnd.3 and glioma cells U87 MG simulates a pathological blood-brain barrier. Axitinib (10 μM), an Axitinib analog of phosphatidylinositol kinase (PI3K) inhibitor LY294002 (10 μM), protein kinase B (AKT) agonist SC79 (10 μM) were added into the Transwell chamber. After 24 hours, immunofluorescent stain was performed on bEnd.3 cells on the Transwell chamber membrane. A physiological blood-brain barrier simulated by a Transwell model of brain microvascular endothelial cell bEnd.3 was used as a positive control.\nU87 MG glioma cells were used as brain tumor model cells. 1.5 mL suspension of well-grown U87 MG cell suspension was inoculated in a 12-well plate at a cell density of 2×10^5/well. Incubation was continued at 37° C. and 5% CO2 until the cells adhere. Then, the physiological blood-brain barrier as constructed by Method 1 in the Example 1, i.e., the Transwell chamber with bEnd.3 cells grown, was transferred to the 12-well plate with U87 MG cells grown. Co-culture was further continued for 24 hours to obtain a cell model of pathological blood-brain barrier.\nThe physiological blood-brain barrier and the pathological blood-brain barrier as constructed in Method 1 and Method 2 in the Example 1 were used as models, respectively. […]"}}}
{"smiles": "CNC(=O)c1ccccc1Sc1ccc2c(/C=C/c3ccccn3)n[nH]c2c1", "note": "[Axitinib, N-methyl-2-((3-((1E)-2-(pyridine-2-yl)ethenyl)-1H-indazol-6-yl)sulfanyl)benzamide]", "values": [{"measurement": "Expression of tight junction protein Claudin-5", "setting": "[1]", "value": "reduce down-regulation of expression of the blood-brain barrier tight junction protein of Claudin-5"}, {"measurement": "Expression of tight junction protein Claudin-5/Occludin", "setting": "[2]", "value": "reduce the degree to which pathological blood-brain barrier tight junction protein of Claudin-5/Occludin is down-regulated"}]}
